{"source": "patent US20250339408A1", "about": "“TREATMENT AND PREVENTION OF BASAL CELL CARCINOMA WITH TOPICAL COMPOSITION COMPRISING PATIDEGIB” (Sol-Gel Technologies Ltd., priority 2023, published 2025)", "key": {"[1]": {"test_system": "basal cell carcinoma (BCC) lesions on the face", "assay": "Post hoc analysis of the Example 3 trial: Gorlin patients without PTCH1 mutation (Example 4)", "assay_type": "in vivo, human", "details": "for Number of qualifying nSEBs, observed, Mean / Number of new BCCs excluding no longer suspicious BCCs, observed, Mean: Gorlin syndrome without PTCH1 mutation, gel 2% twice daily to face; for Number of qualifying nSEBs, observed, Mean: baseline total BCC lesions at least 10; for Number of new BCCs excluding no longer suspicious BCCs, observed, Mean: baseline total facial BCC lesions at least 10", "description": "(§1) A randomized, double-blind, stratified, vehicle-controlled study was done, measuring the efficacy and safety of Patidegib Topical Gel, 2%, applied topically twice daily to the face of adult participants with Gorlin syndrome. The Participants were required to apply the investigational product for 12 months. The primary endpoint is a comparison between the two treatment arms of the number of new BCCs that develop over the 12 month period.\nA post hoc analysis was performed on the results of the clinical trial of Example 3 to analyze the impact of Patidegib on patients without PTCH1 mutation."}, "[2]": {"test_system": "basal cell carcinoma (BCC) lesions on the face", "assay": "Randomized, double-blind, vehicle-controlled study of Patidegib Topical Gel, 2% in Gorlin syndrome participants, ITT, all types of subjects (Example 3)", "assay_type": "in vivo, human", "details": "PTCH1 mutation not required, gel 2% twice daily to face", "source_text": "as §1\nParticipants will be randomized to receive Patidegib Topical Gel, 2%. The Patidegib Topical Gel, 2% will be dispensed to participants at each study visit and applied topically twice daily to the face.\nParticipants will be randomized to receive Vehicle. The Patidegib Topical Gel, Vehicle will be dispensed to participants at each study visit and applied topically twice daily to the face.\n• 1. The participant must be age at least 18 years of age at the Screening Visit. • 2. The participant must provide written informed consent prior to any study procedures. • 3. The participant must meet diagnostic criteria for the basal cell nevus (Gorlin) syndrome including major criterion #3a plus 1 additional major criterion or plus 2 additional minor criteria listed below.\n• a. >2 histologically confirmed BCCs or 1 for participant under age 20. • b. Odontogenic keratocysts of the jaw confirmed histologically. • c. ≥3 palmar and/or plantar pits seen at the Screening Visit. • d. Bilamellar calcification of the falx cerebri present at less than 20 years of age. • e. Fused, bifid, or markedly splayed ribs. • f. First degree relative with Gorlin syndrome. • g. Patched protein 1 (PTCH1) mutation predicted to be of functional significance in normal tissue.\n• h. Macrocephaly. • i. Congenital malformations including frontal bossing, cleft lip or palate, “coarse face”, moderate to severe hypertelorism. • j. Skeletal abnormalities detectable clinically: Sprengel deformity, marked pectus deformity, or marked finger syndactyly. • k. Skeletal abnormalities detectable radiographically: bridging of the sella turcica; vertebral abnormalities such as hemivertebrae, fusion or elongation of the vertebral bodies; modeling defects of the hands and feet; flame shaped lucencies of the hands or feet. • l. Ovarian fibroma. • m. Medulloblastoma (Modification of criteria of V Kimonis et al Am J Med Genet 69: 299-308, 1997). • 4. The participant must have 10 (with at least 3 on the face) clinically typical BCCs present within 24 months prior to Randomization (Baseline/Day 1). Additionally, the subject must have at least 2 BCCs with longest diameter <5 mm present on the face prior to Randomization (Baseline/Day 1). • 5. […] The participant is willing for all facial BCCs to be evaluated and treatment recommendations made only by the Investigator. • 10. […]"}}, "data": [{"smiles": "CC1=C2C[C@H]3[C@@H](CC[C@@H]4C[C@H](NS(C)(=O)=O)CC[C@@]43C)[C@@H]2CC[C@@]2(C1)O[C@@H]1C[C@H](C)CN[C@H]1[C@H]2C", "note": "[Patidegib]", "values": [{"measurement": "Overall efficacy (in words)", "setting": "[1]; Gorlin syndrome subjects who lacked the PTCH1 mutation (Examples 3 and 4)", "result": "produced no effect"}, {"measurement": "Number of qualifying nSEBs, observed, Mean", "setting": "[1]; month 3", "result": 0.25}, {"measurement": "Number of qualifying nSEBs, observed, Mean", "setting": "[1]; month 6", "result": 0.92}, {"measurement": "Number of qualifying nSEBs, observed, Mean", "setting": "[1]; month 9", "result": 1.38}, {"measurement": "Number of qualifying nSEBs, observed, Mean", "setting": "[1]; month 12", "result": 2.50}, {"measurement": "Number of new BCCs excluding no longer suspicious BCCs, observed, Mean", "setting": "[1]; month 3", "result": 1.00}, {"measurement": "Number of new BCCs excluding no longer suspicious BCCs, observed, Mean", "setting": "[1]; month 6", "result": 2.92}, {"measurement": "Number of new BCCs excluding no longer suspicious BCCs, observed, Mean", "setting": "[1]; month 9", "result": 4.75}, {"measurement": "Number of new BCCs excluding no longer suspicious BCCs, observed, Mean", "setting": "[1]; month 12", "result": 6.67}, {"measurement": "Proportion of SEBs clinically resolved, observed, Mean", "setting": "[2]; month 3", "result": 7.72}, {"measurement": "Proportion of SEBs clinically resolved, observed, Mean", "setting": "[2]; month 6", "result": 6.91}, {"measurement": "Proportion of SEBs clinically resolved, observed, Mean", "setting": "[2]; month 9", "result": 9.13}, {"measurement": "Proportion of SEBs clinically resolved, observed, Mean", "setting": "[2]; month 12", "result": 15.03}]}]}
